According to patent publication US11739098B2 (BRISTOL-MYERS SQUIBB COMPANY, priority 2017, dated 2023):

Assays:
Type in all cases: cell-based
human TLR7 = biological target: T1, human TLR7 (Homo sapiens, UniProt Q9NYK1); test: TLR7 inhibition reporter assay (HEK-Blue cells, SEAP reporter, gardiquimod stimulation); conditions: HEK-Blue cells overexpressing human TLR7, SEAP reporter, gardiquimod 7.5 μM
T1 construct: host or cells: HEK-Blue cells (HEK293-derived reporter line)
T1 sequence (Q9NYK1 27-1049): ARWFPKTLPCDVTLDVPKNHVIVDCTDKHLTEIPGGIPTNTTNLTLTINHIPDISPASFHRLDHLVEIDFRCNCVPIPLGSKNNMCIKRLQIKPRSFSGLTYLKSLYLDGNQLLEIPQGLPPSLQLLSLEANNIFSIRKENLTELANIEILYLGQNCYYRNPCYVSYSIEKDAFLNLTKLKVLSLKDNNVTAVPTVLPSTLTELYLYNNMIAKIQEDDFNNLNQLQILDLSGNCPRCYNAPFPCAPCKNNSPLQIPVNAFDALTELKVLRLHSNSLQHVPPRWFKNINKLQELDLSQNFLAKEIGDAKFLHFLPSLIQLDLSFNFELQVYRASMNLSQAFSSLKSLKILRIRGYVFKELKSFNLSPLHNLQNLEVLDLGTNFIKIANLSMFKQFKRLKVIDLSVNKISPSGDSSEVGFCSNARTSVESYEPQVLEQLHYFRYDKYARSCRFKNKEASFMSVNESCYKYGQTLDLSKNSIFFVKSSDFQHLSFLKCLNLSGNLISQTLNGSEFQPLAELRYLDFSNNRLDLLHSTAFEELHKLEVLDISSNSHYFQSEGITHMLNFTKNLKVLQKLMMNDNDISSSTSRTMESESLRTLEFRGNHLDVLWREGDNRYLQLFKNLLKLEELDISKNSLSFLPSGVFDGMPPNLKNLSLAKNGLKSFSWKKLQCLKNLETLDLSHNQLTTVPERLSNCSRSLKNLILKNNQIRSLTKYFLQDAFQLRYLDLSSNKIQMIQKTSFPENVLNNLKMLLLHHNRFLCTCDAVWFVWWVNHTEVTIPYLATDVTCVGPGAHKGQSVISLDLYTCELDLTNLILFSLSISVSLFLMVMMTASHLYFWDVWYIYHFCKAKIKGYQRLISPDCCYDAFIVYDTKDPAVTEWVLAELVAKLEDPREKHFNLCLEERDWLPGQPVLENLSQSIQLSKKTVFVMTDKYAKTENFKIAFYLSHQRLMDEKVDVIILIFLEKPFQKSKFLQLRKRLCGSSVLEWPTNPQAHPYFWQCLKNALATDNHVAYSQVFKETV
Method in brief: (§1)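 Agonists (final): TLR7 gardiquimod 7.5 μM; TLR8 R848 15.9 μM; TLR9 ODN2006 5 nM. HEK-Blue reporter cells, 30 min RT compound pre-incubation, 0.05 nM–50 μM dose range, 22 h at 37 °C, colorimetric SEAP detection medium. % inhibition relative to agonist+DMSO and known-inhibitor wells.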

human TLR9 = biological target: T2, human TLR9 (Homo sapiens, UniProt Q9NR96); test: TLR9 inhibition reporter assay (HEK-Blue cells, SEAP reporter, ODN2006 stimulation); conditions: HEK-Blue cells overexpressing human TLR9, SEAP reporter, ODN2006 5 nM
T2 construct: host or cells: HEK-Blue cells (HEK293-derived reporter line)
T2 sequence (Q9NR96 26-1032): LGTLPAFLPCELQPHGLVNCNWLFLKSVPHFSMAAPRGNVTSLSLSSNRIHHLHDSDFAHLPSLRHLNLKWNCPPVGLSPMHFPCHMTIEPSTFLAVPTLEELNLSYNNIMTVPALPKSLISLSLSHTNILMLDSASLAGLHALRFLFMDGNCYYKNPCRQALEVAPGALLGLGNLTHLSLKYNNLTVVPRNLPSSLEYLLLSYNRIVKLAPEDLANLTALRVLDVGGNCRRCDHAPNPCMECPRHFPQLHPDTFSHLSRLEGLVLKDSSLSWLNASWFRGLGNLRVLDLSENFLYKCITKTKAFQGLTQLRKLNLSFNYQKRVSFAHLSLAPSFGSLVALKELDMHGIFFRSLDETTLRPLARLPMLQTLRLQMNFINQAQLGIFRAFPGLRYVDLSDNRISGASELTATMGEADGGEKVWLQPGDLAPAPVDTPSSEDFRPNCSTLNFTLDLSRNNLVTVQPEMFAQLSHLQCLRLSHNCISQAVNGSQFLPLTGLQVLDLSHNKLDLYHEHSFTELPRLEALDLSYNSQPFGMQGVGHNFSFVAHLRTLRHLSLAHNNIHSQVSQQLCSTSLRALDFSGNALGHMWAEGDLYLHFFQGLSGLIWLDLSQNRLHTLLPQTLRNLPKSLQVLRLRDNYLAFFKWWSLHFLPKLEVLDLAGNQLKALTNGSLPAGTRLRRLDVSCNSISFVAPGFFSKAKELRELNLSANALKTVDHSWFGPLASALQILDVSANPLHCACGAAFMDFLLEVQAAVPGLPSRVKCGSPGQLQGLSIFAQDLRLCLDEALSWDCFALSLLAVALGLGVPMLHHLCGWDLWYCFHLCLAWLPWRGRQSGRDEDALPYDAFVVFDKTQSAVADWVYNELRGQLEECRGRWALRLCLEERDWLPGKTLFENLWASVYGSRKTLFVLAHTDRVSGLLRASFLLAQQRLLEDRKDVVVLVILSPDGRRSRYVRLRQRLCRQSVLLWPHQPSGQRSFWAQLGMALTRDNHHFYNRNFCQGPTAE
Method in brief: as §1

human TLR8 = biological target: T3, human TLR8 (Homo sapiens, UniProt Q9NR97); test: TLR8 inhibition reporter assay (HEK-Blue cells, SEAP reporter, R848 stimulation); conditions: HEK-Blue cells overexpressing human TLR8, SEAP reporter, R848 15.9 μM
T3 construct: host or cells: HEK-Blue cells (HEK293-derived reporter line)
T3 sequence (Q9NR97 27-1041): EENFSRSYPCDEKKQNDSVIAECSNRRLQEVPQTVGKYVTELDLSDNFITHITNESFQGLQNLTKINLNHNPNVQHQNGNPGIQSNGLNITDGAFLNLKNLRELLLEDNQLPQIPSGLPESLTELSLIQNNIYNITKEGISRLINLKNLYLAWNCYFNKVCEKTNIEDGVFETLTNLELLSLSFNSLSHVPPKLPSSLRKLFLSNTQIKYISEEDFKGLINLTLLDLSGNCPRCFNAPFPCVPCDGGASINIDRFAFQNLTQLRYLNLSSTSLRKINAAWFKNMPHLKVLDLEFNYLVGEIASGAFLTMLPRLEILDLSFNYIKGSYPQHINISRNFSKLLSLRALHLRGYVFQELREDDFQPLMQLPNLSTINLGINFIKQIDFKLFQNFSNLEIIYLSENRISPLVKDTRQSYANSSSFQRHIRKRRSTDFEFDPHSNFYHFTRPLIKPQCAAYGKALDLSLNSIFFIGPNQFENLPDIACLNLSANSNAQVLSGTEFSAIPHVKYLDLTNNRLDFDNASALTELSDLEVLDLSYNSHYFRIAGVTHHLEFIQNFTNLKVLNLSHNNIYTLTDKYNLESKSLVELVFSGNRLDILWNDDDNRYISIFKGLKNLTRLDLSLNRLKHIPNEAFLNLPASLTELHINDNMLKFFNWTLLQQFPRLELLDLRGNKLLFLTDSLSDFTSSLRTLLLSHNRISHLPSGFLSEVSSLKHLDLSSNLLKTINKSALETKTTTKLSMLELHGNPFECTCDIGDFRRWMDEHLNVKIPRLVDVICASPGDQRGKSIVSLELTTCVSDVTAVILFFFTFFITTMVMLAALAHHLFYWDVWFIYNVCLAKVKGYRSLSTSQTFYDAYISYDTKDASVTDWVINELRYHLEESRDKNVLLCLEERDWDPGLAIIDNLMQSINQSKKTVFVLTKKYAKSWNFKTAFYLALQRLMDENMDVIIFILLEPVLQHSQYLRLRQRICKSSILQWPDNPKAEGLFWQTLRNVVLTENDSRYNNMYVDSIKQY
Method in brief: as §1

Row | IC50 (human TLR7) [µM] | IC50 (human TLR9) [µM] | IC50 (human TLR8) [µM] | Structure (SMILES)
1 | < 0.1 | 0.1 to 1 | 0.1 to 1 | Cc1nc2c(C)cc(-c3[nH]c4ccc(C5CCNCC5)cc4c3C(C)C)cn2c1C [Example 132, 6-(3-isopropyl-5-(piperidin-4-yl)-1H-indol-2-yl)-2,3,8-trimethylimidazo[1,2-a]pyridine]
2 | 0.1 to 1 | 0.1 to 1 | 0.1 to 1 | FC(F)Cc1c(-c2ccc3nccn3c2)[nH]c2ccc(C3CCN(Cc4c[nH]cn4)CC3)cc12 [Example 941, 6-(5-(1-((1H-imidazol-4-yl)methyl)piperidin-4-yl)-3-(2,2-difluoroethyl)-1H-indol-2-yl)imidazo[1,2-a]pyridine]
3 | 0.1 to 1 | 0.1 to 1 | < 0.1 | CCc1c(-c2ccnc3[nH]ncc23)[nH]c2ccc(C3CCN(Cc4cnc[nH]4)CC3)cc12 [Example 863, 4-(5-(1-((1H-imidazol-5-yl)methyl)piperidin-4-yl)-3-ethyl-1H-indol-2-yl)-1H-pyrazolo[3,4-b]pyridine]
4 | 0.1 to 1 | 0.1 to 1 | 0.1 to 1 | COc1cc(-c2[nH]c3ccc(C4CCN(C5COC5)CC4)cc3c2C(C)C)cc2nccn12 [Example 712, 7-(3-isopropyl-5-(1-(oxetan-3-yl)piperidin-4-yl)-1H-indol-2-yl)-5-methoxyimidazo[1,2-a]pyridine]
5 | 1 to 50 | 1 to 50 | 0.1 to 1 | Cc1cc(-c2[nH]c3ccc(C4CCN(CC(=O)N(C)C)CC4)cc3c2C(C)C)cc2[nH]cnc12 [Example 287, 2-(4-(3-isopropyl-2-(4-methyl-1H-benzo[d]imidazol-6-yl)-1H-indol-5-yl)piperidin-1-yl)-N,N-dimethylacetamide]
6 | 0.1 to 1 | 0.1 to 1 | 0.1 to 1 | CNC(=O)CN1CCC(c2ccc3[nH]c(-c4cc(C)n5cc(C)nc5c4)c(C(C)C)c3c2)CC1 [Example 352, 2-(4-(2-(2,5-dimethylimidazo[1,2-a]pyridin-7-yl)-3-isopropyl-1H-indol-5-yl)piperidin-1-yl)-N-methylacetamide]
7 | < 0.1 | 0.1 to 1 | 0.1 to 1 | CCc1c(-c2ccnc3[nH]ncc23)[nH]c2c(F)cc(C3CCNCC3)cc12 [Example 251, 4-(3-ethyl-7-fluoro-5-(piperidin-4-yl)-1H-indol-2-yl)-1H-pyrazolo[3,4-b]pyridine]
8 | < 0.1 | 1 to 50 | < 0.1 | CNC(=O)CN1CCC(c2ccc3[nH]c(-c4ccc5nccn5c4)c(C(C)C)c3c2)CC1 [Example 403, 2-(4-(2-(imidazo[1,2-a]pyridin-6-yl)-3-isopropyl-1H-indol-5-yl)piperidin-1-yl)-N-methylacetamide]
9 | < 0.1 | 1 to 50 | < 0.1 | Cc1ccc(-c2[nH]c3ccc(C4CCN(CC(C)(C)O)CC4)cc3c2C(C)C)c2ncnn12 [Example 769, 1-(4-(3-isopropyl-2-(5-methyl-[1,2,4]triazolo[1,5-a]pyridin-8-yl)-1H-indol-5-yl)piperidin-1-yl)-2-methylpropan-2-ol]
10 | < 0.1 | > 50 | 0.1 to 1 | Cc1cc(-c2[nH]c3ccc(C4CCN(C(=O)CN5CC(C)(C)OC(C)(C)C5)CC4)cc3c2C(C)C)cn2nnnc12 [Example 473, 1-(4-(3-isopropyl-2-(8-methyltetrazolo[1,5-a]pyridin-6-yl)-1H-indol-5-yl)piperidin-1-yl)-2-(2,2,6,6-tetramethylmorpholino)ethan-1-one]
11 | < 0.1 | 1 to 50 | 0.1 to 1 | CCc1c(-c2ccnc3c(N)n[nH]c23)[nH]c2ccc(C3CCNCC3)cc12 [Example 238, 7-(3-ethyl-5-(piperidin-4-yl)-1H-indol-2-yl)-1H-pyrazolo[4,3-b]pyridin-3-amine]
12 | < 0.1 | 1 to 50 | 0.1 to 1 | Cc1nc2cc(-c3[nH]c4ccc(C5CCN(CC(=O)N(C)C)CC5)cc4c3C(C)C)cc(C)c2o1 [Example 338, 2-(4-(2-(2,7-dimethylbenzo [d]oxazol-5-yl)-3-isopropyl-1H-indol-5-yl)piperidin-1-yl)-N,N-dimethylacetamide]
13 | < 0.1 | 1 to 50 | < 0.1 | CC(C)c1c(-c2ccnc3[nH]ncc23)[nH]c2ccc(C3CCN(C4CCOCC4)CC3)cc12 [Example 682, 4-(3-isopropyl-5-(1-(tetrahydro-2H-pyran-4-yl)piperidin-4-yl)-1H-indol-2-yl)-1H-pyrazolo[3,4-b]pyridine]
14 | 1 to 50 | 1 to 50 | 1 to 50 | CCc1c(-c2cccc3[nH]ncc23)[nH]c2ccc(C3CCNCC3)cc12 [Example 182, 4-(3-ethyl-5-(piperidin-4-yl)-1H-indol-2-yl)-1H-indazole]
15 | 1 to 50 | 1 to 50 | 1 to 50 | CCc1c(-c2cccc3[nH]ncc23)[nH]c2ccc(C3CCN(CC(=O)N(C)C)CC3)cc12 [Example 389, 2-(4-(3-ethyl-2-(1H-indazol-4-yl)-1H-indol-5-yl)piperidin-1-yl)-N,N-dimethylacetamide]
